According to article PMC5467912, “Asymmetric regulation of quorum-sensing receptors drives autoinducer-specific gene expression programs in Vibrio cholerae” (PLoS Genetics, 2017):
Values joined by “and” are separate entries in the source; they are usually repeats but may differ in a detail not shown here. Equal entries are not always repeated. Where two headings read alike, the source gives them in different places.

Assays:
CqsS F162A = experiment: CqsS-dependent repression of qrr4-gfp, CqsS F162A (Fig 7C); assay type: cell-based, Vibrio cholerae; settings: Treatment 1uM; CqsS mutant F162A
WT CqsS [1] = test system: T1, WT CqsS; assay type: cell-based; settings: Treatment 1uM
T1 construct: made in house; host or cells: E. coli C43 (DE3), pET21b; used as inverted membrane vesicles

CqsS D618N = test system: T2, CqsS D618N; experiment: CqsS D618N autophosphorylation in inverted membrane vesicles, 32P (Fig 7A); assay type: biochemical, Vibrio cholerae
T2 construct: made in house; host or cells: E. coli C43 (DE3), pET21b; used as inverted membrane vesicles

WT CqsS [2] = test system: T1, WT CqsS; assay type: biochemical; settings: for % Total Phosphorylation: CqsS WT
CqsS F166L = experiment: CqsS-dependent repression of qrr4-gfp, CqsS F166L (Fig 7C); assay type: cell-based, Vibrio cholerae; settings: Treatment 1uM; CqsS mutant F166L
CqsS C170Y = experiment: CqsS-dependent repression of qrr4-gfp, CqsS C170Y (Fig 7C); assay type: cell-based, Vibrio cholerae; settings: Treatment 1uM; CqsS mutant C170Y
CqsS = target: T3, CqsS (Vibrio cholerae serotype O1, UniProt Q9KM66); experiment: cell-based; settings: for Light production: strain WN1102; for RLU: Strain WN1102
T3 construct: endogenous in cells; host or cells: V. cholerae WN1102 (ΔcqsA ΔluxQ/pBB1), derived from C6706str2

For `CCn1nnnc1NCc1ccc(N2CCCC2)cc1` [#1], the Qrr4-GFP/OD600 (CqsS F162A) was 15523160 and 14988240 and 15125460, the Qrr4-GFP/OD600 (WT CqsS [1]) was 1321723 and 1319147 and 1356464 and the “% Total Phosphorylation” value (CqsS D618N; agonist 0.32 uM) was 64.1931% and 55.8048% and 58.0668% and 77.924% and 56.4082%. For the same compound, the “% Total Phosphorylation” value (CqsS D618N; agonist 10 uM) was 1.9% and 2.181% and 3.3092% and 3.5805%, the “% Total Phosphorylation” value (WT CqsS [2]; Agonist 0.1 uM) was 100.558% and 115.09% and 103.96% and 101.973% and the “% Total Phosphorylation” value (WT CqsS [2]; Agonist 0.5 uM) was 68.5791% and 92.92% and 82.55% and 69.9852%. For the same compound, the “% Total Phosphorylation” value (WT CqsS [2]; Agonist 1 uM) was 45.0881% and 63.83% and 58.45% and 44.3406%, the “% Total Phosphorylation” value (WT CqsS [2]; Agonist 2.5 uM) was 26.3754% and 21.56% and 17.64% and 21.3677% and the “% Total Phosphorylation” value (WT CqsS [2]; Agonist 5 uM) was 11.5601% and 8.94% and 7.65% and 9.2554%. For the same compound, the “% Total Phosphorylation” value (WT CqsS [2]; Agonist 10 uM) was 6.306% and 5.77% and 3.8% and 4.014%, the “% Total Phosphorylation” value (WT CqsS [2]; Agonist 20 uM) was 3.59% and 2.41% and 2.332% and the “% Total Phosphorylation” value (WT CqsS [2]; Agonist 30 uM) was 2.867% and 2.2% and 1.97% and 1.073%. For the same compound, the “% Total Phosphorylation” value (WT CqsS [2]; Agonist 100 uM) was 1.456% and 1.61% and 2.02% and 0.9371%, the “% Total Phosphorylation” value (WT CqsS [2]; Agonist 200 uM) was 0.8391% and 0.1631% and the “inhibition of WT CqsS autophosphorylation” value (WT CqsS [2]; saturating concentration (Fig 7B)) was 99%. For the same compound, the Qrr4-GFP/OD600 (CqsS F166L) was 1372627 and 1402431 and 1341231, the Qrr4-GFP/OD600 (CqsS C170Y) was 18211780 and 19558860 and 23085030 and the Light production (CqsS; Agonist 0.0119209 nM) was 14433 RLU and 16087 RLU and 17053 RLU. The Light production (CqsS; Agonist 0.0476837 nM) was 23351 RLU and 21676 RLU and 24048 RLU, the Light production (CqsS; Agonist 0.190735 nM) was 38851 RLU and 41951 RLU and 36905 RLU and the Light production (CqsS; Agonist 0.762939 nM) was 87702 RLU and 80982 RLU and 79024 RLU. For the same compound, the Light production (CqsS; Agonist 3.05176 nM) was 716543 RLU and 579623 RLU and 556962 RLU, the Light production (CqsS; Agonist 12.207 nM) was 18832900 RLU and 18957270 RLU and 17907730 RLU and the Light production (CqsS; Agonist 48.8281 nM) was 80742000 RLU and 84094230 RLU and 86837650 RLU. For the same compound, the Light production (CqsS; Agonist 195.312 nM) was 115208300 RLU and 122904000 RLU and 129103600 RLU, the Light production (CqsS; Agonist 781.25 nM) was 116783100 RLU and 133656800 RLU and 131724500 RLU and the Light production (CqsS; Agonist 3125 nM) was 109482900 RLU and 129285000 RLU and 130316000 RLU. The Light production (CqsS; Agonist 12500 nM) was 93560740 RLU and 110559800 RLU and 116375500 RLU, the Light production (CqsS; Agonist 50000 nM) was 59185800 RLU and 66981220 RLU and 65547470 RLU and the “fold more potent than CAI-1” value (CqsS; EC50 comparison) was ~ 10 fold. The RLU (CqsS; agonist 0.0119209 nM) was 1.70E+04 RLU and 1.69E+04 RLU and 1.12E+04 RLU, the RLU (CqsS; agonist 0.0476837 nM) was 2.55E+04 RLU and 2.29E+04 RLU and 2.60E+04 RLU and the RLU (CqsS; agonist 0.190735 nM) was 4.47E+04 RLU and 4.12E+04 RLU and 4.19E+04 RLU. The RLU (CqsS; agonist 0.762939 nM) was 6.42E+04 RLU and 6.05E+04 RLU and 7.48E+04 RLU, the RLU (CqsS; agonist 3.05176 nM) was 2.06E+05 RLU and 2.32E+05 RLU and 3.12E+05 RLU and the RLU (CqsS; agonist 12.207 nM) was 1.01E+07 RLU and 9.84E+06 RLU and 1.23E+07 RLU. For the same compound, the RLU (CqsS; agonist 48.8281 nM) was 9.23E+07 RLU and 8.51E+07 RLU and 1.09E+08 RLU, the RLU (CqsS; agonist 195.312 nM) was 1.65E+08 RLU and 1.58E+08 RLU and 1.92E+08 RLU and the RLU (CqsS; agonist 781.25 nM) was 1.94E+08 RLU and 2.03E+08 RLU and 2.28E+08 RLU. The RLU (CqsS; agonist 3125 nM) was 2.05E+08 RLU and 2.11E+08 RLU and 2.23E+08 RLU, the RLU (CqsS; agonist 12500 nM) was 1.88E+08 RLU and 1.94E+08 RLU and 1.93E+08 RLU and the RLU (CqsS; agonist 50000 nM) was 1.33E+08 RLU and 1.29E+08 RLU. For the same compound, the EC50 (CqsS; light production, reporter strain WN1102, 4 h at 30 °C) was 4 nM.
